Data on 18 molecules can be found in patent US20110207729A1, “BICYCLIC ACYLGUANIDINE DERIVATIVE” (ASTELLAS PHARMA INC., priority 2007, published 2011).

One test deals with T1, human 5-HT5A receptor (Homo sapiens, UniProt P47898).
T1 construct: expressed in transfected cells; membrane preparation
Description: Test on a human 5-HT5A receptor binding inhibition ([3H]5-CT). The conditions noted are these: membrane from HEK293 cells expressing human 5-HT5A receptor; Ki calculated from IC50 and Kd 4.95 nM. Put shortly: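 Membranes came from G418-selected HEK293 cells expressing human 5-HT5A, in Tris pH 7.4 with MgSO4 and EDTA. They were preincubated 15 min at RT with compound, then 2 nM [3H]5-CT solution was added for 60 min at 37 °C, followed by GF/C filtration and counting. IC50 used 1 µM 5-CT as 100%; Ki by Cheng–Prusoff (Kd 4.95 nM, Scatchard).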

Test [1] deals with Male ICR mouse. Description: Hyperactivity caused by MK-801 in mice, infrared motion measurement. The conditions noted are these: oral, MK-801 0.3 mg/kg i.p., P<0.05. In kind it is in vivo. As to the method:
(§1) Various Drug Evaluations on a Drug for Increasing the Motion of Mice (methamphetamine, MK-801) (Radiated Infrared Motion Measurement)
(§2) An effect of the compound (I) on improvement on schizophrenia by was evaluated by measuring the inhibited motion through the administration of the compound in a model having a symptom caused by methamphetamine (which is hereinafter simply referred to MAP) and MK-801.
(§3) An animal was taken out of a breeding cage, orally administered with a compound to be tested, and then placed into a cage for breeding. After 30 minutes, the animal was put into a cage for measurement, and the motion with the compound to be tested alone was measured. Further, after 30 to 90 minutes, the animal was taken out, and intraperitoneally administered with a drug for increasing the motion (MAP; 1 mg/kg or MK-801; 0.3 mg/kg, dissolved in a physiological saline, respectively). Then, the motion for a certain period of time (60 minutes) was measured by using a motion measurement device (CompACT AMS from Muromachi Kikai Co., Ltd.) by means of an infrared sensor.
(§4) For a normal mouse (a mouse administered with physiological saline) and a mouse administered with a drug for increasing the motion, a Student's T test was performed for evaluation for each interval. […]

The test system of test [2] is Male ICR mouse. Description: Hyperactivity caused by methamphetamine (MAP) in mice, infrared motion measurement. The class given is in vivo. The conditions noted are these: dose of 0.03 mg/kg, oral; MAP 1 mg/kg i.p.; P<0.05. As to the method:
as §1, §2, §3, §4

For the next test, the system named is Male ddY mouse. Description: Spontaneous alternation behavior (Y-maze) impaired by Scoporamine in mice. In kind it is in vivo. The conditions noted are these: dose of 0.03 mg/kg, oral, Scoporamine 0.5 mg/kg i.p., p<0.05. As to the method: An improvement effect for spontaneous alternation behavior caused by Scoporamine or MK-801 in mice
An effect of the compound (I) on improvement on cognitive impairment was evaluated by using a known performance test method as a model with short-term learning disorder.
The compound to be tested was administered orally 10 to 30 minutes before the test, and 0.5 mg/kg Scoporamine or 0.15 mg/kg MK-801 (for a normal group, physiological saline) was administered intraperitoreally, and the test was performed after 20 minutes. […]
A mouse was placed at the end of one arm of a Y-maze having arms with the same length in three directions, and then explored freely and the number of arm entries was counted for 8 minutes. […] The ratio of the number of the behaviors to the total number of entries was calculated as an alternation rate by the following formula: […]
If a significant difference between the normal group and the control group (Student's t test) was approved in the alternation rate (%), it was considered to have learning disorder by the administration of Scoporamine or MK-801. By carrying out a Dunnett's test on the group administered with the compound to be tested relative to the control group, the presence or absence of an action of the compound to be tested on learning disorder was evaluated. […]

T1 sequence (P47898 whole entry): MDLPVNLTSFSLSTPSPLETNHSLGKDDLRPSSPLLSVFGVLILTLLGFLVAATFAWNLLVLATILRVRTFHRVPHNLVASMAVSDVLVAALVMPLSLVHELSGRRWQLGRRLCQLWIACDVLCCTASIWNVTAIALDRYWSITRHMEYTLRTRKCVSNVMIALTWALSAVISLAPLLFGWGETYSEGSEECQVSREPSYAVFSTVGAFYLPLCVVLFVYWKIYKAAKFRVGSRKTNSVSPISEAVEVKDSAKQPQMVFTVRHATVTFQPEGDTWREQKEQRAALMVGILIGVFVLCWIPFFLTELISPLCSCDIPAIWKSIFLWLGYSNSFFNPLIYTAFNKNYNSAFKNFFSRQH

Broadly, the Ki is a dissociation constant, usually derived from enzyme kinetics or from competition with a known ligand. As to `COc1ccccc1C1=CCCc2ccc(C(=O)N=C(N)N)cc21` [Example 2-06], the Ki on human 5-HT5A receptor is 0.3 to 3 nM. In addition, the “inhibition of hyperactivity caused by MK-801” value in the test with Male ICR mouse [1] (dose of 0.03 mg/kg) was “significantly inhibited”.
With `NC(N)=NC(=O)c1ccc2c(c1)C(c1ccccc1)=CCC2` [Example 2-37], the Ki at human 5-HT5A receptor is 0.3 to 3 nM. In the test with Male ICR mouse [2], the “inhibition of hyperactivity caused by methamphetamine” value is recorded as “significantly inhibited”. Also, the “improvement of alternation rate impaired by Scoporamine” value with Male ddY mouse is reported as “significantly improved”.
`Cc1ccc(C2=CCOc3ccc(C(=O)N=C(N)N)cc32)c(F)c1` [Example 1-47]: the inhibitory constant (Ki) at human 5-HT5A receptor was 0.3 to 3 nM. In addition, the “inhibition of hyperactivity caused by MK-801” value in the test with Male ICR mouse [1] (dose of 0.1 mg/kg) is “significantly inhibited”.
For `CN(C)Cc1ccccc1C1=CCCc2ccc(C(=O)N=C(N)N)cc21` [Example 2-36], the Ki at human 5-HT5A receptor was 30 to 300 nM.
Still for that read-out and setting: as for `COc1ccc(-c2csc3ccc(C(=O)N=C(N)N)cc23)c(OC)c1` [Example 3-20], the figure is 3 to 30 nM.
On the same count and under the same terms, next, `COc1ccccc1C1=CCCCc2ccc(C(=O)N=C(N)N)cc21` [Example 3-06]: 30 to 300 nM; `N#Cc1ccccc1C1=CCSc2ccc(C(=O)N=C(N)N)cc21` [Example 3-19]: 3 to 30 nM; `N#Cc1cccc(F)c1C1=CCCc2ccc(C(=O)N=C(N)N)cc21` [Example 2-180]: 3 to 30 nM.
Consider `Cc1sc2ccc(C(=O)N=C(N)N)cc2c1-c1ccccc1F` [Example 3-35], for which, at human 5-HT5A receptor, the Ki was 0.3 to 3 nM.
`NC(N)=NC(=O)c1ccc2scc(-c3ccc(F)cc3F)c2c1` [Example 3-30]: at human 5-HT5A receptor, the Ki was 0.3 to 3 nM.
As for `NC(N)=NC(=O)c1ccc2c(c1)C(c1ccc(Cl)cc1F)=CCC2` [Example 2-67], the Ki at human 5-HT5A receptor is 0.3 to 3 nM.
On the same count and under the same terms, as for `COc1cc(C#N)ccc1C1=CCCc2ccc(C(=O)N=C(N)N)cc21` [Example 2-55], the figure is 0.3 to 3 nM; as for `NC(N)=NC(=O)c1ccc2c(c1)C(c1ccc(F)cc1F)=CCC2` [Example 2-101], 0.3 to 3 nM.
Regarding `CC1=C(c2cc(F)c(F)cc2F)c2cc(C(=O)N=C(N)N)ccc2CC1` [Example 2-143], the Ki on human 5-HT5A receptor is 0.3 to 3 nM.
Turning to `COc1cc(F)c(F)cc1C1=CCCc2ccc(C(=O)N=C(N)N)cc21` [Example 2-100], on human 5-HT5A receptor, the Ki is 3 to 30 nM.
In the case of `COc1cc(F)ccc1C1=CCCc2ccc(C(=O)N=C(N)N)cc21` [Example 2-54], the Ki at human 5-HT5A receptor is 0.3 to 3 nM.
Turning to `N#Cc1cc(Cl)ccc1C1=CCCc2ccc(C(=O)N=C(N)N)cc21` [Example 2-185], at human 5-HT5A receptor, the Ki was 30 to 300 nM.
The same measure, in the same setting: as for `NC(N)=NC(=O)c1ccc2c(c1)C(c1cccc(Cl)c1F)=CCC2` [Example 2-110], the figure is 0.3 to 3 nM.
